Results published in patent US20240300943A1, “NOVEL SALTS OF HETEROCYCLIC COMPOUND AS PROTEIN KINASE INHIBITOR AND USES THEREOF” (HK INNO.N CORPORATION, priority 2021, published 2024).

Experiments:
[1] = tested on: DSS-induced animal model (C57BL/6J mice); test: DSS-induced colitis model; type: in vivo; settings: oral
Description: To induce colitis in C57BL/6J mice, drinking water was treated with 3% dextran sodium sulphate (DSS) and provided each morning for eight days, and a negative control group was provided with 0% DSS.
After mice were grouped into several groups (day O), the mice were orally dosed with 0.5% methylcellulose and Compound 1 obtained according to Preparation Example 1 as a test material at 9 a.m. and 5 p.m. every day from day 1 to day 7. Test animals were autopsied on day 8.
Disease activity index (DAI) was calculated as body weight, fecal […], and fecal blood score to represent the severity of the disease. Body weight and food intake were monitored and evaluated at the start of the study and every 24 hours, and fecal samples were collected on days 0, 3, 5, and 7 and analyzed according to Table 6 below.
After measuring the weight and length of the colon obtained by autopsy, the weight-to-length ratio was calculated.
On day 8, blood was drawn from the heart into a centrifuge tube containing EDTA-K2 anticoagulant. After centrifugation (7000 rpm, 10 minutes, 4° C.), plasma was separated, and KC and MIP-2 were measured by Meso Scale Discovery Kit.
The mRNA was extracted from a portion of large intestine tissues (same location for each animal) to analyze an expression level of MX2 and TNF-alpha in the tissues through qPCR.
The large intestine part fixed with 10% formalin was cut with paraffin and stained with hematoxylin-eosin. The criteria for histological changes in the colon followed Table 7 below.

JAK1, Tyk2 = test: Human whole blood assay, JAK1, Tyk2; type: cell-based; settings: cytokine-induced STAT phosphorylation
Description: A stock solution of Compound 1 obtained according to Preparation Example 1 was diluted with distilled water and then serially diluted at ⅕ with 4% DMSO. 5 μL of test material was added to 100 μL of whole blood collected using a 1.7 mL eppendorf tube, mixed, and incubated at 37° C. for 45 minutes.
IL-6 (10 μg/ml) was diluted with 0.1% BSA/DW to reach 1 μg/mL each. 5 μL of IL-6 was added (at a final concentration of 50 ng/mL) and incubated at 37° C. for 15 minutes. At this time, 5 μL of DPBS was added as a non-stimulated control group. Lyse/fix buffer 5× was diluted 1× in distilled water and used. […]
For double staining of CD4 and pSTATI, anti-[…] and anti-pSTATI were mixed in a staining buffer and added to each of the samples. […] On the next day, the results were analyzed using FACSCanto II. […]
The numerical values analyzed by FlowJo were calculated to obtain IC50 values using GraphPad Prism 5 software (product name).
No treatment response (NTR) was set as a reference, and the degree of the phosphorylation of STAT induced by cytokines was converted into a relative ratio (% control group). A dose-response plot was obtained for each concentration-dependent activity of each test material using GraphPad Prism (version 5.0) and ICso values were calculated.

[2] = tested on: HDM-induced animal model (NC/Nga mice); test: HDM-induced atopic dermatitis model (topical); type: in vivo
Description: After the back of the ears and neck of the NC/Nga mice was shaved with a razor, a proper amount of depilatory was applied and depilation was performed. After the depilatory was wiped out, about 100 mg of an atopic dermatitis-inducing reagent (Biostir, Japan) was uniformly applied to the back of the ears and neck using a micro pipette tip.
After hair removal was performed using a razor as needed, 150 μL of 4% SDS aqueous solution was uniformly applied to the back of the ears and neck using a micro pipette. After drying with cold air using a dryer, the solution was naturally dried for about two to three hours. About 100 mg of the AD-inducing reagent was uniformly applied to the back of the ears and neck using a micro pipette tip. All treatments were performed 11 times twice a week for a total of six weeks.
As a test material, an appropriate amount of phosphate in Compound 1 obtained according to Example 3 was weighed and then prepared by dissolving in a local vehicle (acetone:DMSO-7:1 v/v). At the time of preparation and administration, the test material was maintained in a light-shielding state, and was prepared and used every three days under the conditions of light-shielding refrigeration.
The administration of the test material was started from the time when the atopic score reached 2.1 to 2.3 points, and was directly applied to the center of the skin twice/day until the day of autopsy from the start date of administration of the test material (Day 0) for three weeks.
The AD-inducing material was applied and sensitized 24 hours before the autopsy, and the drug was administered and applied one hour before the autopsy. […]
To evaluate atopic dermatitis, evaluation of a skin clinical index (Matsuda et al., 1997) was performed from week 0 of the onset of atopic dermatitis. […] After that, the sum of the scores for each item was evaluated as a final grade.
An IgE concentration in blood was analyzed with serum obtained by centrifuging the blood collected on the day of autopsy, and IL-1B, IL-4, IL-13, TNF-α, IL-6, and IL-31 were analyzed using the extracted skin. […]

Structure (SMILES) | Disease activity index (DAI) ([1]; 90 mg/kg, FIG. 21) | Weight-to-length ratio of colon ([1]; FIG. 22) | Histopathological score ([1]; FIG. 24) | KC concentration in plasma ([1]; day 8, FIG. 23) | MIP-2 concentration in plasma ([1]; day 8, FIG. 23) | Expression level of MX2 in the colon ([1]; qPCR, FIG. 23) | Expression level of TNF-alpha in the colon ([1]; qPCR, FIG. 23) | Degree of increase in disease activity index (DAI) ([1]; twice daily day 1 to day 7, FIG. 21) | IC50 (JAK1, Tyk2) [nM] | Atopic dermatitis-related cytokines ([2]; skin, FIG. 30) | Serum IgE levels ([2]; twice/day for three weeks, FIG. 29) | Skin severity scores (clinical atopic dermatitis score) ([2]; twice/day for three weeks, all dosed groups, FIG. 28)
C[C@@H]1CN(C(=O)CC#N)CC=C1c1cc(NC(=O)C2CC2)nc2[nH]ccc12 [Compound 1, (S)—N-(4-(1-(2-cyanoacetyl)-3-methyl-1,2,3,6-tetrahydropyridin-4-yl)-1H-pyrrolo[2,3-b]pyridin-6-yl)cyclopropanecarboxamide] | reduced to half that of the control group (vehicle) | lower value compared to the control group (vehicle) | lowered | decreased | decreased | decreased | decreased | lower than that of the control group (vehicle) | 168 | decrease in atopic dermatitis-related cytokines | decreased compared to the control group | –
C[C@@H]1CN(C(=O)CC#N)CC=C1c1cc(NC(=O)C2CC2)nc2[nH]ccc12 [Example 3, (S)—N-(4-(1-(2-cyanoacetyl)-3-methyl-1,2,3,6-tetrahydropyridin-4-yl)-1H-pyrrolo[2,3-b]pyridin-6-yl)cyclopropanecarboxamide] | – | – | – | – | – | – | – | – | – | – | – | significantly reduced
